The values that follow come from patent US9688675B2, “1,7-naphthyridine derivatives” (Hoffmann-La Roche Inc., priority 2013, dated 2017).

In the assay the test system is human embryonic stem cell derived neural stem cells (NSCs). The experiment in a line: Neural Stem Cell Proliferation Assay (Neurogenesis Assay, ATP levels by CellTiterGlo). Format: cell-based. As to conditions: 96 h, compound concentration at which 150% activity of control (100%) is reached, NSC proliferation, 4 days incubation. The protocol:
Neural Stem Cell Proliferation Assay
Neurogenic properties of small molecules are determined based on the proliferation of human embryonic stem cell derived neural stem cells (NSCs) which were derived via a dual smad inhibition as previously described (Chambers, S. M., et al., Highly efficient neural conversion of human ES and iPS cells by dual inhibition of SMAD signaling, Nature biotechnology, 2009. 27(3): p. 275-80.)
Compounds respond is measured by the increase in cells based on ATP levels
(Promega:CellTiterGlo®) after an incubation period of 4 days.
NSCs are thawed and expanded over 3 passages. On the 14th day, NSCs are seeded in Polyornithin/Laminin coated 384 well plates at a cell density of 21′000 cells/cm^2 in a media volume of 38 μl.
4 hours after cell seeding, compound solutions are added at a volume of 2 μl. Stock solutions of the compounds (water, 5% DMSO) are diluted to obtain a dose response (11 points, dilution factor is 2), ranging from 8 μM to 8 nM. Controls are run to consistently determine the neurogenic properties of the cells:
Negative (neutral) control is cell culture Media (final DMSO concentration: 0.25%).
Positive controls are: • 1. cell culture Media+100 ng/ml FGF2 (final DMSO concentration: 0.1%) • 2. cell culture Media+20 ng/ml EGF (final DMSO concentration: 0.1%) • 3. cell culture Media+100 ng/ml Wnt3a (final DMSO concentration: 0.1%)
After 4 days incubation at 37° C., 5% CO2, the amount of ATP per well is quantified. The ATP concentration is proportional to the cell number. ATP is quantified by using the Promega CellTiterGlo® kit. The CellTiterGlo® reagents contain a cell lysis buffer, a thermo stable luciferase (UltraGlo™ recombinant luciferase), magnesium and luciferin. Luciferin reacts with ATP producing oxyluciferin, AMP and light. The luminescence signal is proportional to the ATP content.
The value of negative (neutral) control is determined for each assay plate by taking the average of 16 negative control wells. The neurogenic compound response is calculated for each compound as (compound/Negative Control)*100.
The values of EC150 from the dose response curve are determined for each test compound. The EC150 is the compound concentration at which 150% activity of control (100%) is reached.

For the compound `NC(=O)c1cnc2cncc(-c3ccc(Cl)cc3)c2c1` [Example 1, 5-(4-Chlorophenyl)-1,7-naphthyridine-3-carboxamide], the EC (150% of control) is 0.09 µM.

In turn, `NC(=O)c1cnc2cncc(-c3ccc(OC(F)(F)F)cc3)c2c1` [Example 2, 5-(4-(Trifluoromethoxy)phenyl)-1,7-naphthyridine-3-carboxamide] registered an EC (150% of control) of 0.47 µM. The same measure for `NC(=O)c1cnc2cncc(-c3ccccc3F)c2c1` [Example 3, 5-(2-Fluorophenyl)-1,7-naphthyridine-3-carboxamide]: 1.12 µM. Compound `NC(=O)c1cnc2cncc(-c3cc(F)c(F)c(F)c3)c2c1` [Example 4, 5-(3,4,5-Trifluorophenyl)-1,7-naphthyridine-3-carboxamide] gave an EC (150% of control) of 1.9 µM. As for `NC(=O)c1cnc2cncc(-c3ccc(F)cc3)c2c1` [Example 5, 5-(4-Fluorophenyl)-1,7-naphthyridine-3-carboxamide], the EC (150% of control) was 1.1 µM.

As to `NC(=O)c1cnc2cncc(-c3ccc(F)c(F)c3)c2c1` [Example 6, 5-(3,4-Difluorophenyl)-1,7-naphthyridine-3-carboxamide], the EC (150% of control) is 0.55 µM. `NC(=O)c1cnc2cncc(-c3ccc(F)cc3F)c2c1` [Example 7, 5-(2,4-Difluorophenyl)-1,7-naphthyridine-3-carboxamide] showed an EC (150% of control) of 0.48 µM.

Turning to `N#Cc1ccc(-c2cncc3ncc(C(N)=O)cc23)cc1` [Example 8, 5-(4-Cyanophenyl)-1,7-naphthyridine-3-carboxamide], the EC (150% of control) is 1.37 µM. As for `CS(=O)(=O)c1ccc(-c2cncc3ncc(C(N)=O)cc23)cc1` [Example 9, 5-(4-(Methylsulfonyl)phenyl)-1,7-naphthyridine-3-carboxamide], the figure is 1.58 µM. The compound `NC(=O)c1cnc2cncc(-c3ccc(C(F)(F)F)cc3)c2c1` [Example 10, 5-(4-(Trifluoromethyl)phenyl)-1,7-naphthyridine-3-carboxamide] came in with an EC (150% of control) of 0.3 µM.

`Cc1nc2cncc(-c3ccc(Cl)cc3)c2cc1C(N)=O` [Example 11, 5-(4-Chlorophenyl)-2-methyl-1,7-naphthyridine-3-carboxamide]: the EC (150% of control) worked out at 0.12 µM. With `NC(=O)c1cnc2cncc(-c3ccc(Cl)cc3F)c2c1` [Example 12, 5-(4-Chloro-2-fluorophenyl)-1,7-naphthyridine-3-carboxamide], the EC (150% of control) came out at 0.07 µM. Take `CS(=O)(=O)CCNC(=O)c1cnc2cncc(-c3ccc(Cl)cc3F)c2c1` [Example 13, 5-(4-Chloro-2-fluorophenyl)-N-(2-(methylsulfonyl)ethyl)-1,7-naphthyridine-3-carboxamide]: the EC (150% of control) is 1.51 µM.

`O=C(NCC(F)(F)F)c1cnc2cncc(-c3ccccc3F)c2c1` [Example 14, 5-(2-Fluorophenyl)-N-(2,2,2-trifluoroethyl)-1,7-naphthyridine-3-carboxamide] returned an EC (150% of control) of 1.21 µM. For the compound `O=C(NCC(F)(F)F)c1cnc2cncc(-c3ccc(F)cc3F)c2c1` [Example 15, 5-(2,4-Difluorophenyl)-N-(2,2,2-trifluoroethyl)-1,7-naphthyridine-3-carboxamide], the EC (150% of control) came out at 1.36 µM. The compound `NC(=O)c1cnc2cncc(N3CCOCC3)c2c1` [Example 16, 5-Morpholino-1,7-naphthyridine-3-carboxamide] gave an EC (150% of control) of 1.43 µM.

As for `O=C(NCC(F)(F)F)c1cnc2cncc(-c3ccc(F)cc3)c2c1` [Example 17, 5-(4-Fluorophenyl)-N-(2,2,2-trifluoroethyl)-1,7-naphthyridine-3-carboxamide], the EC (150% of control) was 1.13 µM.

In turn, `CS(=O)(=O)c1ccc(CNC(=O)c2cnc3cncc(-c4ccc(Cl)cc4)c3c2)cc1` [Example 18, 5-(4-Chlorophenyl)-N-(4-(methylsulfonyl)benzyl)-1,7-naphthyridine-3-carboxamide] had an EC (150% of control) of 0.25 µM.

With `CS(=O)(=O)c1cccc(CNC(=O)c2cnc3cncc(-c4ccc(Cl)cc4)c3c2)c1` [Example 19, 5-(4-Chlorophenyl)-N-(3-(methylsulfonyl)benzyl)-1,7-naphthyridine-3-carboxamide], the EC (150% of control) is 3.18 µM. As for `O=C(NCC1CC1)c1cnc2cncc(-c3ccc(Cl)cc3)c2c1` [Example 20, 5-(4-Chlorophenyl)-N-(cyclopropylmethyl)-1,7-naphthyridine-3-carboxamide], the figure is 4.24 µM; as for `COCCNC(=O)c1cnc2cncc(-c3ccc(Cl)cc3)c2c1` [Example 21, 5-(4-Chlorophenyl)-N-(2-methoxyethyl)-1,7-naphthyridine-3-carboxamide], 4.6 µM. `COc1cccc(-c2cncc3ncc(C(N)=O)cc23)c1` [Example 22, 5-(3-Methoxyphenyl)-1,7-naphthyridine-3-carboxamide] returned an EC (150% of control) of 1.93 µM. In turn, `NC(=O)c1cnc2cncc(-c3cccc(OC(F)(F)F)c3)c2c1` [Example 23, 5-(3-(Trifluoromethoxy)phenyl)-1,7-naphthyridine-3-carboxamide] registered an EC (150% of control) of 5.73 µM. In turn, `COC(=O)c1cncc2ncc(C(N)=O)cc12` [Example 24, Methyl 3-carbamoyl-1,7-naphthyridine-5-carboxylate] yielded an EC (150% of control) of 3.2 µM. The same measure for `NC(=O)c1cnc2cncc(C3=CCOCC3)c2c1` [Example 25, 5-(3,6-Dihydro-2H-pyran-4-yl)-1,7-naphthyridine-3-carboxamide]: 4.41 µM. In the case of `NC(=O)c1cnc2cncc(N3CCC(F)(F)CC3)c2c1` [Example 26, 5-(4,4-Difluoropiperidin-1-yl)-1,7-naphthyridine-3-carboxamide], the EC (150% of control) was found to be 2.09 µM. As for `NC(=O)c1cnc2cncc(-c3ccc(Cl)nc3)c2c1` [Example 27, 5-(6-Chloropyridin-3-yl)-1,7-naphthyridine-3-carboxamide], the EC (150% of control) was 1.08 µM.

Turning to `NC(=O)c1cnc2cncc(-c3ccc(Cl)cc3Cl)c2c1` [Example 28, 5-(2,4-Dichlorophenyl)-1,7-naphthyridine-3-carboxamide], the EC (150% of control) came out at 0.46 µM.
